From PMC9664868, “Dephospho-Coenzyme A Kinase Is an Exploitable Drug Target against Plasmodium falciparum: Identification of Selective Inhibitors by High-Throughput Screening of a Large Chemical Compound Library” (Antimicrobial Agents and Chemotherapy, 2022) come the findings set out here.

One data set concerns the target T1, HsCOASY (Homo sapiens, UniProt Q13057).
T1 construct: His tag (pCold1 vector); made in house; host or cells: Escherichia coli BL21Star (DE3)
T1 sequence (Q13057 1-564): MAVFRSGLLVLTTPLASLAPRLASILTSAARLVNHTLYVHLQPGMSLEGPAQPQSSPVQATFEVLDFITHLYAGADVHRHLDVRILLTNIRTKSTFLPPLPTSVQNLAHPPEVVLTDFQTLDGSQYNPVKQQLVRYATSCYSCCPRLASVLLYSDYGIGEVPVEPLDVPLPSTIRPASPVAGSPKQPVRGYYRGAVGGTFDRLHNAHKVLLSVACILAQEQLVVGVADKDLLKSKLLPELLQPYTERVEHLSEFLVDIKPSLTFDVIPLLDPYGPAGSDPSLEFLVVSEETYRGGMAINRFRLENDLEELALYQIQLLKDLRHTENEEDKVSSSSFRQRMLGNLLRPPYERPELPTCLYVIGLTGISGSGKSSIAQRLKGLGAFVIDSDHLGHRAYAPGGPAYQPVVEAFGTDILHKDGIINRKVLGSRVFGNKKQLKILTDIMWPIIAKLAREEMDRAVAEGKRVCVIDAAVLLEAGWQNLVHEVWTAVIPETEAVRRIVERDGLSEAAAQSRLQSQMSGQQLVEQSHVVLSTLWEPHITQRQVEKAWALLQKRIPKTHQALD
Nature of the data set: Kinetic analysis of recombinant HsCOASY (ADP Hunter Plus). In kind it is biochemical. As to conditions: substrate of HsCOASY. The procedure:
(§1) PfDPCK and HsCOASY activity was measured by quantifying ADP produced in the reaction by a coupling assay using the ADP Hunter Plus assay kit (DiscoverX, USA) according to the manufacturer's instructions. Briefly, enzymatic reactions were carried out in a 20-μL mixture of assay buffer containing 15 mM HEPES, 20 mM NaCl, 1 mM EGTA, 0.02% Tween 20, 10 mM MgCl2, 0.1% bovine gamma globulin, 50 ng of recombinant PfDPCK or HsCOASY, 4 to 256 μM dephospho-CoA, and 5 to 300 μM ATP on a black microplate. All reactions were performed for 2 h, reagents A and B were added, and they were then reincubated for 60 min at 30°C. After reactions were terminated by addition of ADP Hunter Stop solution, the fluorescent signal was measured using SpectraMax Paradigm (Molecular Devices, CA, USA) at excitation and emission wavelengths of 530 and 590 nm, respectively. The kinetic parameters were calculated using the nonlinear regression function using the single saturating concentrations of the substrates by the GraphPad Prism software (GraphPad Software Inc., San Diego, CA). The experiments were repeated three times in triplicate using proteins purified from independent cultures. Kinetic values of enzymes are presented as the means ± standard errors (SEs).

Another data set has as its target PfDPCK (Plasmodium falciparum, UniProt Q8IL34). Nature of the data set: Kinetic analysis of recombinant PfDPCK (ADP Hunter Plus). In kind it is biochemical. The following applies: substrate of PfDPCK. The procedure: as §1
Substrate in data set [1]: CC(C)(COP(=O)(O)OP(=O)(O)OCC1OC(n2cnc3c(N)ncnc32)C(O)C1O)C(O)C(=O)NCCC(=O)NCCS
Nature of the data set: Kinetic analysis of recombinant HsCOASY (ADP Hunter Plus). The data set is classed as biochemical, human. As to conditions: other: substrate of HsCOASY; 30.0 °C. The procedure:
as §1

Chain of PfDPCK (Q8IL34 entry or part of it): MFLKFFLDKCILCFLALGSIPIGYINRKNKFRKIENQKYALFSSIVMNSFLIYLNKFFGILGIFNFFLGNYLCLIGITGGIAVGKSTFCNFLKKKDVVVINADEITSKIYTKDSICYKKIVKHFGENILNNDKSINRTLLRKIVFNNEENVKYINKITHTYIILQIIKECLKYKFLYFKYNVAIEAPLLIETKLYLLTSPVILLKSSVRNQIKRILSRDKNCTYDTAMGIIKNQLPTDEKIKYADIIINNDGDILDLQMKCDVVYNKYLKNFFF

For the molecule `Nc1ncnc2c1ncn2[C@@H]1O[C@H](COP(=O)(O)OP(=O)(O)OP(=O)(O)O)[C@@H](O)[C@H]1O` [ATP], the Km at HsCOASY was determined as 115 ± 13.1 µM; on PfDPCK, 88.1 ± 11 µM.

B1: HsCOASY (Homo sapiens) (protein)
chain: T1 sequence (Q13057 1-564)
notes: His tag (pCold1 vector); made in house; host or cells: Escherichia coli BL21Star (DE3)
Turning to B1, in data set [1], the Km amounted to 85.35 ± 13.4 µM.
